This note sets out measurements from patent US4499091A, “1-Amino (or substituted amino)-1,4-dihydro-4-oxo-6-fluoro-7-heterylquinoline-3-carboxylic acids and their use as antibacterial agents” (Sterling Drug Inc., priority 1983, dated 1985).

≈ marks a conversion by molar mass, not a printed value. Like-named read-outs stand apart in the source and are kept apart here.

The subject of assay [1] is Proteus vulgaris 9920. Nature of the assay: in vitro antibacterial activity, serial dilution (MIC). The format is cell-based. Conditions: 18-20 hours static incubation, read-out: Minimal Inhibitory Concentration (MIC). Here is the method:
(§1) The in vitro antibacterial activity of the compounds of the invention was determined by conventional serial dilution procedures. Bacterial cultures were grown in tryptose phosphate broth or brain heart infusion broth (containing heat-inactivated normal horse serum for tests with S. pyogenes) overnight at 37° C. and subsequently diluted in double strength broth to provide bacterial inocula of about 2×10^5 cells/ml. Aqueous solutions of the compounds of the invention were prepared by dissolving the free acid form in 0.5N sodium hydroxide. The solutions were diluted with sterile distilled water to 1000 mcg/ml of compound in terms of the free acid. Serial two-fold dilutions of the compound stock solutions were prepared in water and 0.5 ml of each dilution was transferred to sets of tubes, one set for each bacterial inoculum.

The subject of assay [2] is Escherichia coli Vogel. The description is as above. The format is cell-based. Conditions: 18-20 hours static incubation, read-out: Minimal Inhibitory Concentration (MIC). Here is the method:
as §1

Assay [3] concerns Staphylococcus aureus Smith. Described as above. It is filed as cell-based. The note with it: 18-20 hours static incubation, read-out: Minimal Inhibitory Concentration (MIC). How it is done:
as §1

Assay [4] relates to Pseudomonas aeruginosa MGH-2. Described as above. The format is cell-based. Conditions: MGH2, 18-20 hours static incubation, read-out: Minimal Inhibitory Concentration (MIC). Here is the method: as §1
Assay [5] deals with Proteus mirabilis MGH-1. Described as above. It is filed as cell-based. The note with it: MGH1, 18-20 hours static incubation, read-out: Minimal Inhibitory Concentration (MIC). Here is the method: as §1
Assay [6] relates to Streptococcus pyogenes C203. The description is as above. It is filed as cell-based. Conditions: 18-20 hours static incubation, read-out: Minimal Inhibitory Concentration (MIC). How it is done: as §1
Assay [7] relates to Klebsiella pneumoniae 39645. The description is as above. The format is cell-based. Conditions: 18-20 hours static incubation, read-out: Minimal Inhibitory Concentration (MIC). Here is the method:
as §1

The subject of assay [8] is Klebsiella pneumoniae 39645. Nature of the assay: in vivo antibacterial activity in mice infected with K. pneumoniae (PD50). Further details: species or system mouse (female) infected with Klebsiella pneumoniae. The note with it: Klebsiella pneumoniae, 39645, sc, 336 h, read-out: Protective Dose (PD50). How it is done: (§2) The in vivo antibacterial activity of the compounds of the invention was determined in female mice, 18-20 grams each, by the following procedure:
(§3) Aqueous solutions of the compounds to be tested were prepared by dissolving the free acid form in dilute sodium hydroxide and diluting the solution with distilled water to be desired volume.
(§4) Cultures of Escherichia coli Vogel prepared in brain heart infusion broth, cultures of Klebsiella pneumoniae 39645 grown in tryptose phosphate broth with 5% rabbit serum diluted in the same broth and cultures of Pseudomonas aeruginosa MGH-2 grown on brain heart infusion agar and suspended in physiological saline, were used to infect the mice as follows:
K. pneumoniae: mice were inoculated intramuscularly in the right hind leg with 0.2 ml of the bacterial test inoculum (2.05×10^4 cells/ml).
Mice infected with K. pneumoniae were medicated at the following times: seventeen hours and one hour preinfection, six hours postinfection and twice a day for the next three days. The test compound was administered by both subcutaneous (0.2 ml) and oral (0.5 ml) routes. Deaths were recorded daily for fourteen days.
(§5) Groups of ten animals each for four or five dose levels were thus treated and the number of survivors in each group recorded. The fifty percent protective dose values (PD50) were then calculated.

In assay [9] the test system is Escherichia coli Vogel. The assay can be described thus: in vivo antibacterial activity in mice infected with E. coli (PD50). The arrangement: species or system mouse (female) infected with Escherichia coli. The note with it: sc, 168 h, read-out: Protective Dose (PD50). Here is the method:
as §2, §3, §4
Mice infected with E. coli were medicated once (0.5 ml) one-half hour post infection, the test compound being administered by either the subcutaneous (s.c.) or oral (p.o.) route. Deaths were recorded daily for seven days.
as §5

Assay [10] relates to Pseudomonas aeruginosa MGH-2. The assay can be described thus: in vivo antibacterial activity in mice infected with P. aeruginosa (PD50). The arrangement: species or system mouse (female) infected with Pseudomonas aeruginosa. The note with it: MGH2, sc, 168 h, read-out: Protective Dose (PD50). Here is the method:
as §2, §3, §4
Deaths were recorded daily for seven days.
as §5

The mark [11] stands for this setting: mouse, K. pneumoniae, s.c., pre- and postinfection, 14 days.
Where [12] appears, read: mouse, E. coli, s.c., once one-half hour post infection, 7 days.

Regarding `CCNn1cc(C(=O)O)c(=O)c2cc(F)c(Cl)cc21` [7-Chloro-1-ethylamino-6-fluoro-1,4-dihydro-4-oxo-3-quinolinecarboxylic acid], the MIC in assay [1] was determined as 0.25 µg/mL (≈ 0.878 µM); in assay [2], 1.95 µg/mL (≈ 6.85 µM); in assay [3], 15.6 µg/mL (≈ 54.8 µM); in [4], 31.3 µg/mL (≈ 110 µM); in [5], 3.9 µg/mL (≈ 13.7 µM); in [6], 31.3 µg/mL (≈ 110 µM). Besides, in [7], the MIC is 3.9 µg/mL (≈ 13.7 µM).

In the case of `CN1CCN(c2cc3c(cc2F)c(=O)c(C(=O)O)cn3N)CC1` [Example 3, 1-Amino-6-fluoro-1,4-dihydro-4-oxo-7-(4-methyl-1-piperazinyl)-3-quinolinecarboxylic acid], the ED50 worked out at 30.5 mg/kg in assay [8] (setting [11]) and 3.13 mg/kg in assay [9] (setting [12]). Further, the MIC in assay [1] is 1 µg/mL (≈ 3.12 µM); in assay [2], 2 µg/mL (≈ 6.24 µM); in assay [4], 15.6 µg/mL (≈ 48.7 µM); in assay [5], 2 µg/mL (≈ 6.24 µM); in assay [6], 62.5 µg/mL (≈ 195 µM); in [7] it was 2 µg/mL (≈ 6.24 µM).

For the compound `CNn1cc(C(=O)O)c(=O)c2cc(F)c(N3CCNCC3)cc21` [Example 4, 6-Fluoro-1,4-dihydro-1-methylamino-4-oxo-7-(1-piperazinyl)-3-quinolinecarboxylic acid], the ED50 in assay [10] came to 0.46 mg/kg; in assay [8], 6.25 mg/kg; in assay [9], 0.32 mg/kg. Further, the MIC came out at 0.25 µg/mL (≈ 0.78 µM) in [1]; 1 µg/mL (≈ 3.12 µM) in assay [2]; 2 µg/mL (≈ 6.24 µM) in assay [3]; 1 µg/mL (≈ 3.12 µM) in [4]; 0.5 µg/mL (≈ 1.56 µM) in assay [5]; 1 µg/mL (≈ 3.12 µM) in [7].

Take `CCCNn1cc(C(=O)O)c(=O)c2cc(F)c(N3CCN(C)CC3)cc21` [Example 6, 6-Fluoro-1,4-dihydro-7-(4-methyl-1-piperazinyl)-4-oxo-1-propylamino-3-quinolinecarboxylic acid]: the ED50 in [8] (setting [11]) is > 200 mg/kg; in assay [9] (setting [12]) it was 32 mg/kg. Further, the MIC came to 2 µg/mL (≈ 5.52 µM) in [1]; 2 µg/mL (≈ 5.52 µM) in [2]; 15.6 µg/mL (≈ 43 µM) in assay [3]; 31.3 µg/mL (≈ 86.4 µM) in [4]; 31.3 µg/mL (≈ 86.4 µM) in assay [5]; 125 µg/mL (≈ 345 µM) in [6]. In addition, the MIC in assay [7] was 2 µg/mL (≈ 5.52 µM).

Take `CN1CCN(c2cc3c(cc2F)c(=O)c(C(=O)O)cn3N(C)C)CC1` [Example 7, 6-Fluoro-1-dimethylamino-1,4-dihydro-7-(4-methyl-1-piperazinyl)-4-oxo-3-quinolinecarboxylic acid]: the values for the ED50 in assay [8] (setting [11]) and in assay [9] (setting [12]) were 29 mg/kg and 1.66 mg/kg, respectively. Also, the MIC in [1] was found to be 0.12 µg/mL (≈ 0.344 µM); in [2], 0.5 µg/mL (≈ 1.44 µM); in assay [4] it was 2 µg/mL (≈ 5.74 µM); in assay [5] it was 2 µg/mL (≈ 5.74 µM); in assay [6], 31.3 µg/mL (≈ 89.8 µM); in assay [7], 2 µg/mL (≈ 5.74 µM).

Turning to `CNn1cc(C(=O)O)c(=O)c2cc(F)c(N3CCN(C(C)C)CC3)cc21` [Example 10, 6-Fluoro-1,4-dihydro-1-methylamino-7-[4-(1-methylethyl)-1-piperazinyl]-4-oxo-3-quinolinecarboxylic acid], the ED50 came to 50 mg/kg in assay [8] (setting [11]) and 2.7 mg/kg in assay [9] (setting [12]). Besides, the MIC came out at 0.5 µg/mL (≈ 1.38 µM) in assay [2]; 2 µg/mL (≈ 5.52 µM) in assay [3]; 8 µg/mL (≈ 22.1 µM) in [4]; 4 µg/mL (≈ 11 µM) in assay [5]; 4 µg/mL (≈ 11 µM) in assay [6]; 0.5 µg/mL (≈ 1.38 µM) in assay [7].

In the case of `CNn1cc(C(=O)O)c(=O)c2cc(F)c(N3CCN(C(C)=O)CC3)cc21` [Example 14, 7-(4-Acetyl-1-piperazinyl)-6-fluoro-1,4-dihydro-1-methylamino-4-oxo-3-quinolinecarboxylic acid], the ED50 in assay [8] (setting [11]) and in [9] (setting [12]) was 100 mg/kg each time. In addition, the MIC turned out to be 1.95 µg/mL (≈ 5.38 µM) in assay [1]; 15.6 µg/mL (≈ 43.1 µM) in assay [2]; 62.5 µg/mL (≈ 172 µM) in [4]; 15.6 µg/mL (≈ 43.1 µM) in [5]; 31.3 µg/mL (≈ 86.4 µM) in assay [6].

As to `CNn1cc(C(=O)O)c(=O)c2cc(F)c(N3CCCN(C)CC3)cc21` [Example 20, 6-Fluoro-7-(hexahydro-4-methyl-1H-1,4-diazapin-1-yl)-1,4-dihydro-1-methylamino-4-oxo-3-quinolinecarboxylic acid], the ED50 in assay [8] (setting [11]) is 33 mg/kg; in assay [9] (setting [12]), 3.6 mg/kg. Also, the MIC worked out at 2 µg/mL (≈ 5.74 µM) in [2]; 4 µg/mL (≈ 11.5 µM) in assay [3]; 4 µg/mL (≈ 11.5 µM) in assay [4]; 2 µg/mL (≈ 5.74 µM) in assay [5]; 32 µg/mL (≈ 91.9 µM) in assay [6]; 4 µg/mL (≈ 11.5 µM) in [7].

Take `CNn1cc(C(=O)O)c(=O)c2cc(F)c(N3CCSCC3)cc21` [Example 21, 6-Fluoro-1,4-dihydro-1-methylamino-4-oxo-7-(4-thiomorpholinyl)-3-quinolinecarboxylic acid]: the ED50 in [9] (setting [12]) was > 200 mg/kg. Besides, the MIC in assay [2] is 0.5 µg/mL (≈ 1.48 µM); in assay [3], 0.5 µg/mL (≈ 1.48 µM); in assay [4] it was 4 µg/mL (≈ 11.9 µM); in assay [5], 2 µg/mL (≈ 5.93 µM); in assay [6] it was > 8 µg/mL; in assay [7], 0.5 µg/mL (≈ 1.48 µM).

Regarding `CNn1cc(C(=O)O)c(=O)c2cc(F)c(N3CCC(O)C3)cc21` (stereo not shown) [Example 22, 6-Fluoro-1,4-dihydro-7-(3-hydroxy-1-pyrrolidinyl)-1-methylamino-4-oxo-3-quinolinecarboxylic acid], the ED50 in assay [8] (setting [11]) is 118 mg/kg; in assay [9] (setting [12]), 10.4 mg/kg. Besides, the MIC in assay [2] came to 1 µg/mL (≈ 3.11 µM); in assay [3], 1 µg/mL (≈ 3.11 µM); in assay [4] it was 4 µg/mL (≈ 12.4 µM); in assay [5], 1 µg/mL (≈ 3.11 µM); in assay [6] it was 16 µg/mL (≈ 49.8 µM); in assay [7], 4 µg/mL (≈ 12.4 µM).
